We go through 1 compound from patent US20080004272A1, “Compositions and methods for modulating gated ion channels” (PainCeptor Pharma Corporation, priority 2006, published 2008).

The assay has as its system carrageenan-induced thermal hyperalgesia. Description: Carrageenan model, thermal hyperalgesia (Hargreaves' assay). Particulars: rat, 10 mg/kg s.c. 30 min prior to carrageenan, tested 2, 3 and 4 h post. It counts as in vivo. The method, then: Acute inflammatory hyperalgesia is induced in rats by unilateral injection of […] of a 3% solution of 1-carrageenan into the plantar surface of the left hind paw 2-4 h prior to testing. Thermal nociceptive thresholds are determined according to the method described elsewhere (Hargreaves et al., 1988). Briefly, through the glass surface, a radiant heat source (8 V, 50 W projector bulb) is focused onto the plantar surface of the hind paw. The rat's paw-withdrawal latency to this stimulus is recorded to the nearest 0.1 s. Each latency score is an average of three trials, which are separated by at least 5 min. In all rats, both the injured and uninjured hind paws are similarly tested, allowing direct comparisons between inflamed and non-inflamed paws.
FIG. 5 illustrates the effect of Compound 203 (10 mg/kg s.c.) on the thermal hyperalgesia (observed in the Hargreaves' assay) resulting from an acute paw inflammation caused by the intraplantar injection of 150 μl of a 3% solution of λ-carrageenan. Compound 203 was given 30 min prior to carrageenan injection and thermal hyperalgesia was tested 2, 3, and 4 h post carrageenan injection.

With `CN1CCc2c(-c3ccccc3)cc(C#N)c(N)c2C1` [Compound 203, 8-Amino-2-methyl-5-phenyl-1,2,3,4-tetrahydro-isoquinoline-7-carbonitrile], the “Effect on thermal hyperalgesia” value is “reduced the thermal hyperalgesia to level not significant to the control paw”.
